# Assay results taken from PubChem BioAssay AID2060493 (Molecular Pharmacology Branch, DTP, NCI, 2025).
# “And” between values parts separate entries of the source, which are not always exact repeats. Equal values may be shown once.
# System: 616215-338-R-J1-PDC tumor spheroids, viability
# Assay: Anticancer human tumor 616215-338-R-J1-PDC patient-derived colon adenocarcinoma cell line growth inhibition [GQUAD]
# Conditions: spheroids with HUVEC and MSC; for viability, T/C: stronger effect = lower value
# Description: DNA G-quadruplex Stabilizer Agents in Combinations in Complex Spheroids
# A high-throughput screen of multi-cell type tumor spheroids was designed to identify active combinations of DNA G-quadruplex stabilizer agents and targeted small molecules. Complex spheroids include a stromal component modeled by human endothelial cells (HUVEC) and fibroblasts modeled by human mesenchymal stem cells (MSCs). The concentration ranges selected for each drug and investigational agent were based upon clinically achievable concentrations if the clinical Cmax of the agent was known.
# Compounds. The drugs and investigational agents: pidnarulex (CX-5461; NSC782164), APTO-253 (NSC789042), BRACO-19 (NSC847499), peposertib (NSC802822), ceralasertib (NSC780249), elimusertib (NSC800525), camonsertib (NSC841442), AZD-1390 (NSC803789), olaparib (NSC753686), talazoparib (NSC767125), ART-558 (NSC835418), sotorasib (NSC818433), MRTX-1133 (NSC836407), SN-38 (NSC673596), topotecan (NSC609699), etoposide (NSC141540), doxorubicin (NSC123127), gemcitabine (NSC613327), 5-fluorouracil (NSC19893), paclitaxel (NSC125973), vemurafenib (NSC761431), panobinostat (NSC761190), R-306465 (JNJ-16241199; NSC773264), adavosertib (NSC754352), TP-3654 (NSC805149), carboplatin (NSC241240), KSQ-4279 (NSC840948), and staurosporine (NSC755774) were obtained from the National Cancer Institute (NCI) Developmental Therapeutics Program Chemical Repository (34). The FDA-approved anticancer drug set is available from the NCI Developmental Therapeutics Program. […] The stock solutions were prepared in dimethyl sulfoxide (DMSO, Sigma-Aldrich, St. Louis, MO, cat. D2650) at 800-fold the tested concentration and stored at -70 degrees C prior to their use. All drugs and investigational agents were tested over a range starting from a high concentration at or near the clinical Cmax and decreasing in half-log increments. If the clinical Cmax for an agent had not been determined, the highest concentration tested was 10 microM.
# 2.3 Cell Culture. All cells were maintained in an incubator at 37 degrees C and 5% CO2 with 95% humidity. The PDC lines were cultured according to standard operating procedures established by the NCI PDMR. All PDCs were thawed and cultured in Matrigel-coated flasks prepared with a working solution of 1X Ham's F-12 nutrient mix, without supplementation (Invitrogen, cat. 11765054), 100 U/mL penicillin-streptomycin (Invitrogen, cat. 15140122), and 2.5% Matrigel (Corning Inc., cat. 354248) for the first three passages. The 857933-349-R-J2-PDC line was cultured in 6C/Colon 1B media, which includes advanced DMEM/F-12 (Thermo Fisher Scientific, cat. 12634028), 10 mM HEPES (Thermo Fisher Scientific, cat. 15630080), 1X GlutaMAX supplement (Thermo Fisher Scientific, cat. 35050061), 0.1 mg/mL primocin (InvivoGen, cat. ant-pm-2), 10% defined fetal bovine serum, heat inactivated (HyClone Laboratories Inc., cat. SH30070.03HI), 50% L-WRN conditioned media (ATCC, cat. CRL-3276), 1.25 mM N-Acetyl-L-cysteine (Sigma-Aldrich, cat. A9165), 10 mM nicotinamide (Sigma-Aldrich, cat. N0636), 1X B-27 supplement (Thermo Fisher Scientific, cat. 17504044), 1X N-2 supplement (Thermo Fisher Scientific, cat. 17502048), 10 microM Y-27632 dihydrochloride (Tocris Bioscience, cat. 1254), and 50 ng/mL human EGF recombinant protein (Thermo Fisher Scientific, cat. PHG0311). The 485176-168-R4-J1-PDC line was cultured in Panc media, which includes all 6C/Colon 1B media components plus 100 ng/mL human FGF-10 (Thermo Fisher Scientific, cat. 100-26), 500 nM SB-431542 (Selleckchem, cat. S1067), and gastrin (Tocris, cat. 3006).
# […]
# [1] = curve of first compound, second compound 0.0316 µM
# [2] = curve of first compound, second compound 0.1 µM
# [3] = curve of first compound, second compound 0.316 µM
# [4] = curve of first compound, second compound 1 µM
# [5] = curve of first compound, second compound 3.16 µM
# [6] = curve of first compound, second compound 10 µM
# [7] = second compound 0.0316 µM, first compound 0.0316 µM
# [8] = second compound 0.0316 µM, first compound 0.1 µM
# [9] = second compound 0.0316 µM, first compound 0.316 µM
# [10] = second compound 0.0316 µM, first compound 1 µM
# [11] = second compound 0.0316 µM, first compound 3.16 µM
# [12] = second compound 0.0316 µM, first compound 10 µM
# [13] = second compound 0.1 µM, first compound 0.0316 µM
# [14] = second compound 0.1 µM, first compound 0.1 µM
# [15] = second compound 0.1 µM, first compound 0.316 µM
# [16] = second compound 0.1 µM, first compound 1 µM
# [17] = second compound 0.1 µM, first compound 3.16 µM
# [18] = second compound 0.1 µM, first compound 10 µM
# [19] = second compound 0.316 µM, first compound 0.0316 µM
# [20] = second compound 0.316 µM, first compound 0.1 µM
# [21] = second compound 0.316 µM, first compound 0.316 µM
# [22] = second compound 0.316 µM, first compound 1 µM
# [23] = second compound 0.316 µM, first compound 3.16 µM
# [24] = second compound 0.316 µM, first compound 10 µM
# [25] = second compound 1 µM, first compound 0.0316 µM
# [26] = second compound 1 µM, first compound 0.1 µM
# [27] = second compound 1 µM, first compound 0.316 µM
# [28] = second compound 1 µM, first compound 1 µM
# [29] = second compound 1 µM, first compound 3.16 µM
# [30] = second compound 1 µM, first compound 10 µM
# [31] = second compound 3.16 µM, first compound 0.0316 µM
# [32] = second compound 3.16 µM, first compound 0.1 µM
# [33] = second compound 3.16 µM, first compound 0.316 µM
# [34] = second compound 3.16 µM, first compound 1 µM
# [35] = second compound 3.16 µM, first compound 3.16 µM
# [36] = second compound 3.16 µM, first compound 10 µM
# [37] = second compound 10 µM, first compound 0.0316 µM
# [38] = second compound 10 µM, first compound 0.1 µM
# [39] = second compound 10 µM, first compound 0.316 µM
# [40] = second compound 10 µM, first compound 1 µM
# [41] = second compound 10 µM, first compound 3.16 µM
# [42] = second compound 10 µM, first compound 10 µM
# 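Also: spheroids exposed to agents for 7 days before readout.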
# 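For viability, T/C in this document: percent viability relative to DMSO vehicle control wells taken as 100%.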
compound,measurement,setting,value
C=CCn1c(=O)c2cnc(Nc3ccc(N4CCN(C)CC4)cc3)nc2n1-c1cccc(C(C)(C)O)n1 + CN(C)c1ccc(Nc2c3ccc(NC(=O)CCN4CCCC4)cc3nc3cc(NC(=O)CCN4CCCC4)ccc23)cc1,IC50,[1],0.344 µM
same,IC50,[2],0.3 µM
same,IC50,[3],0.347 µM
same,IC50,[4],0.281 µM
same,IC50,[5],0.308 µM
same,IC50,[6],0.335 µM
same,"viability, T/C",[7],108%
same,"viability, T/C",[8],100%
same,"viability, T/C",[9],50.6%
same,"viability, T/C",[10],23%
same,"viability, T/C",[11],12.6%
same,"viability, T/C",[12],11.5%
same,"viability, T/C",[13],107%
same,"viability, T/C",[14],109%
same,"viability, T/C",[15],46.9%
same,"viability, T/C",[16],23.5%
same,"viability, T/C",[17],13.4%
same,"viability, T/C",[18],12%
same,"viability, T/C",[19],105%
same,"viability, T/C",[20],107%
same,"viability, T/C",[21],52.2%
same,"viability, T/C",[22],23.3%
same,"viability, T/C",[23],13.1%
same,"viability, T/C",[24],14.7%
same,"viability, T/C",[25],98.2%
same,"viability, T/C",[26],99.5%
same,"viability, T/C",[27],44.1%
same,"viability, T/C",[28],24.4%
same,"viability, T/C",[29],13.7%
same,"viability, T/C",[30],14.3%
same,"viability, T/C",[31],100%
same,"viability, T/C",[32],96.9%
same,"viability, T/C",[33],46.4%
same,"viability, T/C",[34],26%
same,"viability, T/C",[35],14.5%
same,"viability, T/C",[36],10.6%
same,"viability, T/C",[37],87.9%
same,"viability, T/C",[38],90.3%
same,"viability, T/C",[39],49%
same,"viability, T/C",[40],19.9%
same,"viability, T/C",[41],11.9%
same,"viability, T/C",[42],3.42%
CCCS(=O)(=O)Nc1ccc(F)c(C(=O)c2c[nH]c3ncc(-c4ccc(Cl)cc4)cc23)c1F + CN(C)c1ccc(Nc2c3ccc(NC(=O)CCN4CCCC4)cc3nc3cc(NC(=O)CCN4CCCC4)ccc23)cc1,IC50,[1],5.56 µM
same,IC50,[2],5.39 µM
same,IC50,[3],5.39 µM
same,IC50,[4],5.91 µM
same,IC50,[5],5.18 µM
same,IC50,[6],3.79 µM
same,"viability, T/C",[7],103%
same,"viability, T/C",[8],110%
same,"viability, T/C",[9],108%
same,"viability, T/C",[10],105%
same,"viability, T/C",[11],94.3%
same,"viability, T/C",[12],3.74%
same,"viability, T/C",[13],101%
same,"viability, T/C",[14],92.6%
same,"viability, T/C",[15],112%
same,"viability, T/C",[16],94.6%
same,"viability, T/C",[17],89.8%
same,"viability, T/C",[18],3.81%
same,"viability, T/C",[19],105%
same,"viability, T/C",[20],96.5%
same,"viability, T/C",[21],99.7%
same,"viability, T/C",[22],92%
same,"viability, T/C",[23],89.3%
same,"viability, T/C",[24],4.92%
same,"viability, T/C",[25],112%
same,"viability, T/C",[26],88.7%
same,"viability, T/C",[27],89.1%
same,"viability, T/C",[28],100%
same,"viability, T/C",[29],97.3%
same,"viability, T/C",[30],10.3%
same,"viability, T/C",[31],101%
same,"viability, T/C",[32],99.4%
same,"viability, T/C",[33],105%
same,"viability, T/C",[34],85.4%
same,"viability, T/C",[35],84.9%
same,"viability, T/C",[36],7.85%
same,"viability, T/C",[37],88.9%
same,"viability, T/C",[38],73.8%
same,"viability, T/C",[39],94%
same,"viability, T/C",[40],88%
same,"viability, T/C",[41],58.4%
same,"viability, T/C",[42],5.74%
COc1ncnc(C2CC2)c1-c1ncc2cnn(Cc3ccc(-c4nc(C(F)(F)F)cn4C(C)C)cc3)c2n1,"viability, T/C",compound 0.0316 µM,113% and 96.4% and 110%
same,"viability, T/C",compound 0.1 µM,108% and 109% and 97.3%
same,"viability, T/C",compound 0.316 µM,99.2% and 103% and 102%
same,"viability, T/C",compound 1 µM,116% and 99.7% and 105%
same,"viability, T/C",compound 3.16 µM,106% and 100% (2×)
same,"viability, T/C",compound 10 µM,106% and 92.4% and 93.6%
same,IC50,curve of compound,> 10 µM
